Tests used:
KHYG-1 (IL-2 2.5 ng/mL) [1] = assay: drug sensitivity score (DSS) (DSS units); higher = more sensitive; extreme values may be limits of the assay; conditions: 72 h
KAI3 (IL-2 2.5 ng/mL) [2] = assay: as above; conditions: 72 h
[3] = tested on: normal primary NK cells, pool 1 (3 donors) (IL-2 2.5 ng/mL); assay: as above; conditions: 72 h
NK-YS (IL-2 2.5 ng/mL) [4] = assay: as above; conditions: 72 h
NK-92 (IL-2 2.5 ng/mL) [5] = assay: as above; conditions: 72 h
DERL-7 (IL-2 2.5 ng/mL) [6] = assay: as above; conditions: 72 h
IMC-1 (IL-2 20 ng/mL) [7] = assay: as above; conditions: 72 h
YT (IL-2 2.5 ng/mL) [8] = assay: as above; conditions: 72 h
[9] = tested on: normal primary NK cells, pool 2 (3 donors) (IL-2 2.5 ng/mL); assay: as above; conditions: 72 h
[10] = tested on: normal primary NK cells, pool 3 (3 donors) (IL-2 2.5 ng/mL); assay: as above; conditions: 72 h
SNK-6 (IL-2 2.5 ng/mL) [11] = assay: as above; conditions: 72 h
[12] = tested on: normal primary NK cells, pool 1 (3 donors), resting (IL-2 0 ng/mL); assay: as above; conditions: 72 h
NKL (IL-2 2.5 ng/mL) [13] = assay: as above; conditions: 72 h
[14] = tested on: normal NK cells expanded with K562-aAPC; assay: as above; conditions: 72 h; IL-2 2.5 ng/mL
Description: (§1)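 Drug sensitivity and resistance testing on K562-aAPC-expanded normal NK cells: 5 concentrations (10-fold steps over a 10,000-fold range), 72 h at 37 °C, viability by CellTiter-Glo normalised to DMSO and benzethonium chloride controls; DSS from the fitted curve.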

[15] = tested on: normal NK cells expanded with K562-aAPC; assay: percent inhibition of viability; higher = more inhibition; conditions: 72 h, IL-2 2.5 ng/mL
Description: as §1

KHYG-1 (IL-2 2.5 ng/mL) [16] = assay: as above; conditions: 72 h
KAI3 (IL-2 2.5 ng/mL) [17] = assay: as above; conditions: 72 h
[18] = tested on: normal primary NK cells, pool 1 (3 donors) (IL-2 2.5 ng/mL); assay: as above; conditions: 72 h
NK-YS (IL-2 2.5 ng/mL) [19] = assay: as above; conditions: 72 h
NK-92 (IL-2 2.5 ng/mL) [20] = assay: as above; conditions: 72 h
DERL-7 (IL-2 2.5 ng/mL) [21] = assay: as above; conditions: 72 h
IMC-1 (IL-2 20 ng/mL) [22] = assay: as above; conditions: 72 h
YT (IL-2 2.5 ng/mL) [23] = assay: as above; conditions: 72 h
[24] = tested on: normal primary NK cells, pool 2 (3 donors) (IL-2 2.5 ng/mL); assay: as above; conditions: 72 h
[25] = tested on: normal primary NK cells, pool 3 (3 donors) (IL-2 2.5 ng/mL); assay: as above; conditions: 72 h
SNK-6 (IL-2 2.5 ng/mL) [26] = assay: as above; conditions: 72 h
[27] = tested on: normal primary NK cells, pool 1 (3 donors), resting (IL-2 0 ng/mL); assay: as above; conditions: 72 h
NKL (IL-2 2.5 ng/mL) [28] = assay: as above; conditions: 72 h

COc1cc(OC)c(/C=C/S(=O)(=O)Cc2ccc(OC)c(NCC(=O)O)c2)c(OC)c1 [Rigosertib] (max concentration tested 10000 nM)
Conditions	drug sensitivity score
DERL-7 (IL-2 2.5 ng/mL) [6]	29.1
IMC-1 (IL-2 20 ng/mL) [7]	29.3
KAI3 (IL-2 2.5 ng/mL) [2]	20.3
KHYG-1 (IL-2 2.5 ng/mL) [1]	29.8
NK-92 (IL-2 2.5 ng/mL) [5]	26.8
NK-YS (IL-2 2.5 ng/mL) [4]	23
NKL (IL-2 2.5 ng/mL) [13]	26.7
SNK-6 (IL-2 2.5 ng/mL) [11]	26.8
YT (IL-2 2.5 ng/mL) [8]	27.8
[3]	4.54
[9]	3.7
[10]	0.62
[12]	8.37
[14]	11.3

percent inhibition of viability [%]
Conditions	1 nM	10 nM	100 nM	1000 nM	10000 nM
DERL-7 (IL-2 2.5 ng/mL) [21]	-3.53	3.03	91	98	97.8
IMC-1 (IL-2 20 ng/mL) [22]	-6.34	-1.76	93.8	99.2	97.8
KAI3 (IL-2 2.5 ng/mL) [17]	-3.07	5.22	55	71.9	67.5
KHYG-1 (IL-2 2.5 ng/mL) [16]	-1.12	-2.53	96.6	102	97.6
NK-92 (IL-2 2.5 ng/mL) [20]	-6.11	2.36	77.7	97.1	94.3
NK-YS (IL-2 2.5 ng/mL) [19]	-0.07	0.08	70.9	76.8	77.4
NKL (IL-2 2.5 ng/mL) [28]	-16.2	-17.7	87.4	92.2	85.4
SNK-6 (IL-2 2.5 ng/mL) [26]	-14.2	3	76.5	95.2	97.2
YT (IL-2 2.5 ng/mL) [23]	-2.58	3.15	82.9	98.4	95.7
[15]	-1.17	-9.48	-1.76	57.7	82.7
[18]	-11.3	-13.9	-2.02	15.3	45.3
[24]	-8.68	-8.95	-9.12	13.6	37.4
[25]	-13.6	-15.7	-12.6	-0.93	21.3
[27]	-8.83	-4.84	6.87	37.8	69.8

O=C(CCCCCCNC(=O)c1cnc(N(c2ccccc2)c2ccccc2)nc1)NO [Rocilinostat] (max concentration tested 10000 nM)
Conditions	drug sensitivity score
DERL-7 (IL-2 2.5 ng/mL) [6]	8.01
IMC-1 (IL-2 20 ng/mL) [7]	6.83
KAI3 (IL-2 2.5 ng/mL) [2]	12
KHYG-1 (IL-2 2.5 ng/mL) [1]	11.5
NK-92 (IL-2 2.5 ng/mL) [5]	10.4
NK-YS (IL-2 2.5 ng/mL) [4]	9.02
NKL (IL-2 2.5 ng/mL) [13]	12.8
SNK-6 (IL-2 2.5 ng/mL) [11]	9.9
YT (IL-2 2.5 ng/mL) [8]	8.53
[3]	10.4
[9]	8.8
[10]	6.65
[12]	13.4
[14]	9.32

percent inhibition of viability [%]
Conditions	1 nM	10 nM	100 nM	1000 nM	10000 nM
DERL-7 (IL-2 2.5 ng/mL) [21]	-3.48	-3.35	-1.28	14.9	99.9
IMC-1 (IL-2 20 ng/mL) [22]	-4.44	-8.29	-0.57	8.19	100
KAI3 (IL-2 2.5 ng/mL) [17]	0.64	-3.56	4.44	55.4	96.6
KHYG-1 (IL-2 2.5 ng/mL) [16]	3.34	0.58	-3.42	47.2	101
NK-92 (IL-2 2.5 ng/mL) [20]	-11.1	-18.3	11.4	41	102
NK-YS (IL-2 2.5 ng/mL) [19]	2.13	-8.18	0.48	22.7	98.8
NKL (IL-2 2.5 ng/mL) [28]	-10.5	-16	-8.09	62.8	104
SNK-6 (IL-2 2.5 ng/mL) [26]	-5.08	-17.2	-1.48	31.4	97.9
YT (IL-2 2.5 ng/mL) [23]	0.06	-7.38	-4.05	18.3	101
[15]	-3.43	-1.33	-2.48	24.8	99.9
[18]	2.06	3.65	16.7	40.9	97.5
[24]	-7.32	-6.43	5.49	23.4	94
[25]	-3.33	-0.54	6.26	8.12	96.7
[27]	8.2	-4.24	18.1	59.2	90.9
